In US20160108049A1 (TAKEDA Gmbh, priority 2011, published 2016):

Assays:
human PDE5 = molecular target: T1, human PDE5 (Homo sapiens, UniProt O76074); test: Inhibition of PDE5 activity (platelet lysate, SPA assay); assay type: biochemical; conditions: 0.5 μM cGMP, read-out: PDE5 Inhibitory values measured as -logIC50 (converted)
T1 construct: from tissue; host or cells: human platelets from fresh donor blood (platelet lysate)
Description: Method for Measuring Inhibition of PDE5 Activity
As a source for human PDE5, platelets were used. For that purpose, 150 ml fresh blood from human donors anticoagulated with citrate [final concentration 0.3% (w/v)] was centrifuged at 200 g for 10 min to obtain the so-called platelet-rich-plasma (PRP) as a supernatant. […] After centrifugation (1,400 g, 10 min) the cell pellet was resuspended in 3 ml homogenization buffer (NaCl 140 mM, KCl 3.8 mM, EGTA (ethylene glycol tetraacetic acid) 1 mM, MgCl2 1 mM, Tris-HCl 20 mM, beta-mercaptoethanol 1 mM, pH 8.2) plus protease-inhibitor mix resulting in final concentrations of 0.5 mM Pefablock (Roche), 10 μM Leupeptin, 5 μM Trypsine inhibitor, 2 mM Benzamidin and 10 μM Pepstatin A. The suspension was sonicated and thereafter centrifuged for 15 min at 10,000 g. The resulting supernatant (platelet lysate) was used for enzymatic assays.
PDE5 activities were measured in a 96-well platform using SPA (scintillation proximity assay) yttrium silicate beads (RPNQ1050 from GE Healthcare). In a first step the PDE activity operated hydrolysis of either [^3H] cGMP (substrate) into [^3H] 5′GMP. In a second step substrate and product were distinguished following addition of SPA yttrium silicate beads. Indeed, in the presence of zinc sulphate the linear [^3H] […] Close proximity of bound [^3H] […] The test volume was 100 μl and contained 20 mM Tris buffer (pH 7.4), 0.1 mg of BSA (bovine serum albumin)/ml, 5 mM Mg^2+, 1 μM motapizone (PDE3 Inhibitor), 10 nM PDE2 inhibitor 2-(3,4-dimethoxybenzyl)-7-[(1R,2R)-2-hydroxy-1-(2-phenylethyl)propyl]-5-methylimidazo[5,1-f][1,2,4]triazin-4(3H)-one, 0.5 μM cGMP (cyclic guanosine monophosphate) (including about 50,000 cpm of [3H]cGMP as a tracer) (substrate), 1 μl of the respective compound dilution in dimethylsulfoxide (DMSO) and sufficient PDE5-containing platelet lysat (10,000×g supernatant, see above) to ensure that 10-20% of the cGMP was converted under the said experimental conditions. […] After a preincubation of 5 min at 37° C., the reaction was commenced by adding the substrate (cGMP) and the assay was incubated for a further 15 min. The reaction was terminated by adding SPA beads (50 μl). In agreement with the manufacturer's instructions, the SPA beads had previously been resuspended in water, but were then diluted 1:3 (v/v) in water. This diluted solution also contained 3 mM 8-methoxymethyl-3-isobutyl-1-methylxanthine (IBMX) to ensure a complete block of PDE activity. Once the beads were sedimented (>30 min), the MTP's were analyzed in commercially available luminescence detection devices. The corresponding IC50 values of the compounds for inhibition of PDE activity were determined from the concentration-effect curves by means of non-linear regression.
(§1) The numbers of the compounds correspond to the numbers of the examples.

PDE4B1 = molecular target: T2, PDE4B1 (Homo sapiens, UniProt Q07343); test: Inhibition of PDE4 activity (PDE4B1, SPA assay); assay type: biochemical; conditions: recombinant PDE4B1, 0.5 μM cAMP; read-out: PDE4B1 Inhibitory values measured as -logIC50 (converted)
T2 construct: made in house; host or cells: SF21 insect cells (baculovirus; virus made in SF9 cells, pCR-Bac vector)
T2 sequence (Q07343 whole entry): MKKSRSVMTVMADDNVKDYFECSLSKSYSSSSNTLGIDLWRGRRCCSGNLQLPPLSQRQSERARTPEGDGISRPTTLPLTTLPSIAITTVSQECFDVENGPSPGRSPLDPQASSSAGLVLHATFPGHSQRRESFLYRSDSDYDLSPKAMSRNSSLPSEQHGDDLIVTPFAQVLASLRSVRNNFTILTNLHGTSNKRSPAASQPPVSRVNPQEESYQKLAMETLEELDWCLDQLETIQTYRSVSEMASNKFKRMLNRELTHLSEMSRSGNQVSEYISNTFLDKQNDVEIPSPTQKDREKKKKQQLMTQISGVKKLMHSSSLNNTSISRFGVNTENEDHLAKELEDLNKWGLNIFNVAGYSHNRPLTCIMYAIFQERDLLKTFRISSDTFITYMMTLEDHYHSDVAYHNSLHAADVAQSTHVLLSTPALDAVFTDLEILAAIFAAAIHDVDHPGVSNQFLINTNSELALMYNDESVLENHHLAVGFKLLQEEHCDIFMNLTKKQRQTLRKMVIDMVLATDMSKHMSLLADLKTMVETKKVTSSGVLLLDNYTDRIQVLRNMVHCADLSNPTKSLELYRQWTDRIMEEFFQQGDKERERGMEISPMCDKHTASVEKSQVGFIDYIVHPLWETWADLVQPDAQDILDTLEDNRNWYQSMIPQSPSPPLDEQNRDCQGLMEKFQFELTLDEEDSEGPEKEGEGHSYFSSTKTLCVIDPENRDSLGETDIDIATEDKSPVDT
Description: Method for Measuring Inhibition of PDE4 Activity
The PDE4B1 (GB no. L20966) was a gift of Prof. M. Conti (Stanford University, USA). It was amplified from the original plasmid (pCMV5) via PCR with primers Rb18 (5′-[…]-3′) and Rb10 (5′-[…]-3′) and cloned into the pCR-Bac vector (Invitrogen, Groningen, NL).
The recombinant baculovirus was prepared by means of homologous recombination in SF9 insect cells. The expression plasmids were cotransfected with Baculo-Gold DNA (Pharmingen, Hamburg) using a standard protocol (Pharmingen, Hamburg). Wt virus-free recombinant virus supernatants were selected using plaque assay methods. After that, high-titre virus supernatants were prepared by amplifying 3 times. PDE4B1 was expressed in SF21 cells by infecting 2×10^6 cells/ml with an MOI (multiplicity of infection) between 1 and 10 in the serum-free SF900 medium (GIBCO Life Technologies, Karlsruhe, Germany) The cells were cultured at 28° C. for 48-72 hours, after which they were pelleted for 5-10 min at 1000×g and 4° C.
The SF21 insect cells were resuspended, at a concentration of approx. 10^7 cells/ml, in ice-cold (4° C.) homogenization buffer (20 mM Tris, pH 8.2, containing the following additions: 140 mM NaCl, 3.8 mM KCl, 1 mM EGTA, 1 mM MgCl2, 10 mM β-mercaptoethanol, 2 mM benzamidine, 0.4 mM Pefablock, 10 μM leupeptin, 10 μM pepstatin A, 5 μM trypsin inhibitor) and disrupted by ultrasonication. The homogenate was then centrifuged for 10 min at 1000×g and the supernatant was stored at −80° C. until subsequent use (see below). The protein content was determined by the Bradford method (BioRad, Munich) using BSA (Bovine serum albumin) as the standard.
PDE4B1 activities were measured in a 96-well platform using SPA (scintillation proximity assay) yttrium silicate beads (RPNQ1050 from GE Healthcare). In a first step the PDE activity operated hydrolysis of either [^3H] cAMP (substrate) into […]. In a second step substrate and product were distinguished following addition of SPA yttrium silicate beads. […] Close proximity of bound [^3H] […] The test volume was 100 μl and finally contained 20 mM Tris buffer (pH 7.4), 0.1 mg/ml of BSA, 5 mM Mg^2+, 0.5 μM cAMP (including about 50,000 cpm of [3H]cAMP) as substrate, 1 μl of the respective substance dilution in DMSO and sufficient recombinant PDE (1000×g supernatant, see above) to ensure that 10-20% of the cAMP was converted under the said experimental conditions. […] After a preincubation of 5 min at 37° C., the reaction was commenced by adding the substrate (cAMP) and the assays were incubated for a further 15 min. Reactions were terminated by adding SPA beads (50 μl). In agreement with the manufacturer's instructions, the SPA beads had previously been resuspended in water, but were then diluted 1:3 (v/v) in water. This diluted solution further contained 3 mM IBMX (isobutylmethylxanthine) to ensure a complete block of PDE activity. Once the beads were sedimented (>30 min), the MTP's (micro titerplate) were analyzed in commercially available […]. The corresponding IC50 values of the compounds for inhibition of PDE4B1 activity were determined from the concentration-effect curves by means of non-linear regression.
as §1

IC50 (human PDE5)	IC50 (PDE4B1)	Compound
1 to 10 nM	< 1 nM	COc1ccc(C2=NN(C3CCN(C(=O)[C@@H](Cc4ccc(-c5ccccc5)cc4)NC(=O)c4c[nH]c5c(-c6c(OCC7CC7)ccc7c6OCO7)ncnc45)CC3)C(=O)[C@@H]3CCCC[C@H]23)cc1OC [Example 13, N-[(2R)-3-(biphenyl-4-yl)-1-{4-[(4aS,8aR)-4-(3,4-dimethoxyphenyl)-1-oxo-4a,5,6,7,8,8a-hexahydrophthalazin-2(1H)-yl]piperidin-1-yl}-1-oxopropan-2-yl]-4-[5-(cyclopropylmethoxy)-1,3-benzodioxol-4-yl]-5H-pyrrolo[3,2-d]pyrimidine-7-carboxamide]
< 1 nM	1 to 10 nM	COc1cc(OCC2CC2)c(-c2ncnc3c(C(=O)N[C@@H](CCC(=O)N4CCCCC4)C(=O)N4CCC(N5N=C(c6ccc(OC)c(OC)c6)[C@H]6CCCC[C@H]6C5=O)CC4)c(C)[nH]c23)cc1F [Example 84, 4-[2-(cyclopropylmethoxy)-5-fluoro-4-methoxyphenyl]-N-[(2S)-1-{4-[(4aS,8aR)-4-(3,4-dimethoxyphenyl)-1-oxo-4a,5,6,7,8,8a-hexahydrophthalazin-2(1H)-yl]piperidin-1-yl}-1,5-dioxo-5-(piperidin-1-yl)pentan-2-yl]-6-methyl-5H-pyrrolo[3,2-d]pyrimidine-7-carboxamide]
1 to 10 nM	1 to 10 nM	COc1ccc(C2=NN(C3CCN(C(=O)[C@@H](CCC(=O)OCc4ccccc4)NC(=O)c4c[nH]c5c(-c6c(OCC7CC7)ccc7c6OCO7)ncnc45)CC3)C(=O)[C@@H]3CCCC[C@H]23)cc1OC [Example 100, Benzyl (4R)-4-[({4-[5-(cyclopropylmethoxy)-1,3-benzodioxol-4-yl]-5H-pyrrolo[3,2-d]pyrimidin-7-yl}carbonyl)amino]-5-{4-[(4aS,8aR)-4-(3,4-dimethoxyphenyl)-1-oxo-4a,5,6,7,8,8a-hexahydrophthalazin-2(1H)-yl]piperidin-1-yl}-5-oxopentanoate]
1 to 10 nM	1 to 10 nM	COc1ccc(C2=NN(C3CCN(C(=O)[C@@H](Cc4ccc(C(F)(F)F)cc4)NC(=O)c4c[nH]c5c(-c6c(OCC7CC7)ccc7c6OCO7)ncnc45)CC3)C(=O)[C@@H]3CCCC[C@H]23)cc1OC [Example 49, 4-[5-(cyclopropylmethoxy)-1,3-benzodioxol-4-yl]-N-{(2R)-1-{4-[(4aS,8aR)-4-(3,4-dimethoxyphenyl)-1-oxo-4a,5,6,7,8,8a-hexahydrophthalazin-2(1H)-yl]piperidin-1-yl}-1-oxo-3-[4-(trifluoromethyl)phenyl]propan-2-yl}-5H-pyrrolo[3,2-d]pyrimidine-7-carboxamide]
1 to 10 nM	1 to 10 nM	COc1cc(OCC2CC2)c(-c2ncnc3c(C(=O)N[C@@H](C(=O)N4CCC(N5N=C(c6ccc(OC)c(OC)c6)[C@H]6CCCC[C@H]6C5=O)CC4)[C@H](C)c4ccccc4)c(C)[nH]c23)cc1F [Example 37, 4-[2-(cyclopropylmethoxy)-5-fluoro-4-methoxyphenyl]-N-[(2R,3R)-1-{4-[(4aS,8aR)-4-(3,4-dimethoxyphenyl)-1-oxo-4a,5,6,7,8,8a-hexahydrophthalazin-2(1H)-yl]piperidin-1-yl}-1-oxo-3-phenylbutan-2-yl]-6-methyl-5H-pyrrolo[3,2-d]pyrimidine-7-carboxamide]
1 to 10 nM	> 10 nM	COc1ccc(C2=NN(C3CCN(C(=O)[C@@H](Cc4ccccc4)NC(=O)c4c[nH]c5c(-c6c(OCC7CC7)ccc7c6OCO7)ncnc45)CC3)C(=O)[C@H]3CCCC[C@@H]23)cc1OC [Example 45, 4-[5-(cyclopropylmethoxy)-1,3-benzodioxol-4-yl]-N-[(2R)-1-{4-[(4aR,8aS)-4-(3,4-dimethoxyphenyl)-1-oxo-4a,5,6,7,8,8a-hexahydrophthalazin-2(1H)-yl]piperidin-1-yl}-1-oxo-3-phenylpropan-2-yl]-5H-pyrrolo[3,2-d]pyrimidine-7-carboxamide]
> 10 nM	1 to 10 nM	COc1ccc(C2=NN(C3CCN(C(=O)[C@@H](Cc4ccc(C#N)cc4)NC(=O)c4c(C)[nH]c5c(-c6c(OCC7CC7)ccc7c6OCO7)ncnc45)CC3)C(=O)[C@@H]3CCCC[C@H]23)cc1OC [Example 14, N-[(2R)-3-(4-cyanophenyl)-1-{4-[(4aS,8aR)-4-(3,4-dimethoxyphenyl)-1-oxo-4a,5,6,7,8,8a-hexahydrophthalazin-2(1H)-yl]piperidin-1-yl}-1-oxopropan-2-yl]-4-[5-(cyclopropylmethoxy)-1,3-benzodioxol-4-yl]-6-methyl-5H-pyrrolo[3,2-d]pyrimidine-7-carboxamide]
1 to 10 nM	1 to 10 nM	COc1ccc(C2=NN(C3CCN(C(=O)[C@H](Cc4cccnc4)NC(=O)c4c[nH]c5c(-c6c(OCC7CC7)ccc7c6OCO7)ncnc45)CC3)C(=O)C3(CCCC3)C2)cc1OC [Example 125, 4-[5-(cyclopropylmethoxy)-1,3-benzodioxol-4-yl]-N-[(2S)-1-{4-[9-(3,4-dimethoxyphenyl)-6-oxo-7,8-diazaspiro[4.5]dec-8-en-7-yl]piperidin-1-yl}-1-oxo-3-(pyridin-3-yl)propan-2-yl]-5H-pyrrolo[3,2-d]pyrimidine-7-carboxamide]
< 1 nM	< 1 nM	COc1ccc(C2=NN(C3CCN(C(=O)[C@@H](Cc4ccc(O)cc4)NC(=O)c4c[nH]c5c(-c6c(OCC7CC7)ccc7c6OCO7)ncnc45)CC3)C(=O)[C@@H]3CCCC[C@H]23)cc1OC [Example 52, 4-[5-(cyclopropylmethoxy)-1,3-benzodioxol-4-yl]-N-[(2R)-1-{4-[(4aS,8aR)-4-(3,4-dimethoxyphenyl)-1-oxo-4a,5,6,7,8,8a-hexahydrophthalazin-2(1H)-yl]piperidin-1-yl}-3-(4-hydroxyphenyl)-1-oxopropan-2-yl]-5H-pyrrolo[3,2-d]pyrimidine-7-carboxamide]
